Series [1] deals with Mus musculus. Put plainly: Antifibrotic activity against bleomycin-induced idiopathic pulmonary fibrosis C57BL/6 mouse model assessed as reduction in alveolar space collapse in lungs at 10 mg/kg, ip bid for 3 weeks by Hematoxylin-Eosin staining based analysis. Type of series: functional, organism-based.
Series [2] relates to A549. Put plainly: Inhibition of TGF-beta1-induced epithelial-to-mesenchymal transition in human A549 cells assessed as reduction in alpha-SMA expression at 0.3 uM incubated for 1 hr followed by TGF-beta1 stimulation for 48 hrs by western blot analysis. Format: functional, cell-based. The settings on record: time 49.0 hrs. On the technique in general: In western blotting, separated proteins are transferred to a membrane and probed.

The target in series [3] is Mitogen-activated protein kinase 11 (Homo sapiens) (UniProt Q15759). Put plainly: Inhibition of p38beta (unknown origin) at 0.1 uM preincubated for 10 mins followed by substrate and ATP addition and measured after 60 mins by ADP-Glo reagent based luminescence analysis. The settings on record: time 70.0 min. A general note: In ADP-Glo the light output rises with the ADP produced.
Sequence of Mitogen-activated protein kinase 11 (Homo sapiens) (Q15759 whole entry): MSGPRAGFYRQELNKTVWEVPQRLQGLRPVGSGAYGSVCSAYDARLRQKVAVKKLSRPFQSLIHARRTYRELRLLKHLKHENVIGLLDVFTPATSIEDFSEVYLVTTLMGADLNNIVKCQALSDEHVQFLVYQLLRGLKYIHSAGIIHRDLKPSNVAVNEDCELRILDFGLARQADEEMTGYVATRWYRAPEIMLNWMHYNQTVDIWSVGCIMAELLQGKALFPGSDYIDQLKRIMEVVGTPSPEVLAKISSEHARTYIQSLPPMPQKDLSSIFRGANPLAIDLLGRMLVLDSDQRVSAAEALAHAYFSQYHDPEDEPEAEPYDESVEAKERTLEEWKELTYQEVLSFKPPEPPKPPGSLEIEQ

Series [4] is filed under the species Homo sapiens. Put plainly: Selectivity ratio of IC50 for inhibition of N-terminal GST-tagged human recombinant full length JNK2 expressed in baculovirus-infected Sf9 cell to IC50 for inhibition of N-terminal GST-tagged human recombinant full length JNK1 expressed in baculovirus-infected Sf9 cells.
Series [5] deals with Mus musculus. Kind of series: Antifibrotic activity against bleomycin-induced idiopathic pulmonary fibrosis C57BL/6 mouse model assessed as restoration of pulmonary respiratory function by measuring increase in tidal volume at 3 to 10 mg/kg, ip bid for 3 weeks by spirometry analysis. Type of series: functional, organism-based. The settings on record: dose 3-10 mg/kg.
Series [6] in a line: AUC (0 to infinity) in Sprague-Dawley rat at 10 mg/kg, ip by HPLC-UV analysis. Format: ADME, organism-based. The conditions noted are these: in vivo.
A short description of series [7]: MRT (0 to infinity) in Sprague-Dawley rat at 5 mg/kg, iv by HPLC-UV analysis. Type of series: ADME, organism-based. The settings on record: in vivo.
In series [8] the target is T1, Dual specificity mitogen-activated protein kinase kinase 7 (Homo sapiens) (UniProt O14733).
T1 sequence (whole entry): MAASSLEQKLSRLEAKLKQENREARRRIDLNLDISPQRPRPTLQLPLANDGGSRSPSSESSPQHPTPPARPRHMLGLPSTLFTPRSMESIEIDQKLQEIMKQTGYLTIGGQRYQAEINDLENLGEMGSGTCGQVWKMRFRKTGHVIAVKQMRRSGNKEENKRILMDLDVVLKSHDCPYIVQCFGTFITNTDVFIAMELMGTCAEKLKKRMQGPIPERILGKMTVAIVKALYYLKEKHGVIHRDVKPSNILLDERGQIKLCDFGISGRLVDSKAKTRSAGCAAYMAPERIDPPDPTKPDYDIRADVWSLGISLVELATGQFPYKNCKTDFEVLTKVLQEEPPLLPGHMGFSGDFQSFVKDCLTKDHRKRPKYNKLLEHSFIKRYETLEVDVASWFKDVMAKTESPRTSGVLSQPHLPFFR
Put plainly: Inhibition of MAP2K7 (unknown origin) at 0.1 uM preincubated for 10 mins followed by substrate and ATP addition and measured after 60 mins by ADP-Glo reagent based luminescence analysis. The settings on record: time 70.0 min.

Series [9] has as its target T2, Dual specificity mitogen-activated protein kinase kinase 4 (Homo sapiens) (UniProt P45985).
T2 sequence (whole entry): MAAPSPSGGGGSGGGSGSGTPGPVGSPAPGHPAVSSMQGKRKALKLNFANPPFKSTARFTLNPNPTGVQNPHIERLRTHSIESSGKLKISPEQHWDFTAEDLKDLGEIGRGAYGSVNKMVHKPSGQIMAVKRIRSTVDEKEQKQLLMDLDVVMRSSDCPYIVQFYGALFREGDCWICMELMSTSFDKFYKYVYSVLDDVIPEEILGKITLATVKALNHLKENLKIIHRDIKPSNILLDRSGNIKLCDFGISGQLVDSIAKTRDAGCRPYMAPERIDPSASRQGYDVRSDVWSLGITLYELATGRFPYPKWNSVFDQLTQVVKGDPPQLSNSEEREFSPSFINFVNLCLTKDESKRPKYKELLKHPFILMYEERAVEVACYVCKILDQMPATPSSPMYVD
Kind of series: Inhibition of MAP2K4 (unknown origin) at 0.1 uM preincubated for 10 mins followed by substrate and ATP addition and measured after 60 mins by ADP-Glo reagent based luminescence analysis. The conditions noted are these: time 70.0 min.

Series [10] concerns the target T3, Mitogen-activated protein kinase 8 (Homo sapiens, UniProt P45983). Kind of series: Inhibition of JNK1 in human BEAS-2B cells assessed as decrease inbanisomycin-stimulated c-Jun phosphorylation at 0.3 uM incubated for 1 hr followed by incubation with anisomycin for 1 hr by western blot analysis. Format: cell-based. The settings on record: time 2.0 hrs.
Series [11] in a line: MRT (0 to infinity) in Sprague-Dawley rat at 10 mg/kg, ip by HPLC-UV analysis. Format: ADME, organism-based. The conditions noted are these: in vivo.
For series [12], the species on record is Homo sapiens. Put plainly: Selectivity ratio of IC50 for inhibition of N-terminal GST-tagged human recombinant full length JNK3 expressed in baculovirus-infected Sf9 cell to IC50 for inhibition of N-terminal GST-tagged human recombinant full length JNK1 expressed in baculovirus-infected Sf9 cells.
In series [13] the target is Mitogen-activated protein kinase 1 (Homo sapiens) (UniProt P28482). Put plainly: Inhibition of Erk2 (unknown origin) at 0.1 uM preincubated for 10 mins followed by substrate and ATP addition and measured after 60 mins by ADP-Glo reagent based luminescence analysis. The settings on record: time 70.0 min.
Sequence of Mitogen-activated protein kinase 1 (Homo sapiens) (P28482 whole entry): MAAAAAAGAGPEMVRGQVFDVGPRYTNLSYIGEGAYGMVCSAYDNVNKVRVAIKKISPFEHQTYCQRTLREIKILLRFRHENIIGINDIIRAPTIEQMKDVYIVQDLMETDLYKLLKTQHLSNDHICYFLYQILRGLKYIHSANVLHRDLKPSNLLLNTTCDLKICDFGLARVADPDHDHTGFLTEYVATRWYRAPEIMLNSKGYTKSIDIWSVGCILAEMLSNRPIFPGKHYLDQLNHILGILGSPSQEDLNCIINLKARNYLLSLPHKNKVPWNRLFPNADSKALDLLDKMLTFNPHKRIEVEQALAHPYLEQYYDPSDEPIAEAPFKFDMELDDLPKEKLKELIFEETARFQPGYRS
Series [14] addresses Dual specificity mitogen-activated protein kinase kinase 2 (Homo sapiens) (UniProt P36507). Kind of series: Inhibition of MAP2K2 (unknown origin) at 0.1 uM preincubated for 10 mins followed by substrate and ATP addition and measured after 60 mins by ADP-Glo reagent based luminescence analysis. The conditions noted are these: time 70.0 min.
A short description of series [15]: Volume of distribution in Sprague-Dawley rat at 10 mg/kg, ip by HPLC-UV analysis. Type of series: ADME, organism-based. The settings on record: in vivo.
Series [16] concerns the target Mitogen-activated protein kinase 7 (Homo sapiens) (UniProt Q13164). Put plainly: Inhibition of Erk5 (unknown origin) at 0.1 uM preincubated for 10 mins followed by substrate and ATP addition and measured after 60 mins by ADP-Glo reagent based luminescence analysis. The settings on record: time 70.0 min.
Series [17] concerns the target T3, Mitogen-activated protein kinase 8. Kind of series: Inhibition of JNK1 in human BEAS-2B cells assessed as decrease in anisomycin-stimulated c-Jun phosphorylation at 1 to 50 uM incubated for 1 hr followed by incubation with anisomycin for 1 hr by western blot analysis. Type of series: cell-based. The conditions noted are these: dose 1-50 µM, time 2.0 hrs.
Series [18] has the same target. Kind of series: Inhibition of JNK1 in human NCI-H1299 cells assessed as decrease in anisomycin-stimulated c-Jun phosphorylation incubated for 1 hr followed by incubation with anisomycin for 1 hr by western blot analysis. Type of series: cell-based. The settings on record: dose 0.1-3 µM, time 2.0 hrs.
Series [19] can be described thus: Tmax in Sprague-Dawley rat at 10 mg/kg, ip by HPLC-UV analysis. Type of series: ADME, organism-based. The settings on record: in vivo.
Series [20] has as its system Mus musculus. Kind of series: In vivo inhibition of JNK1 in bleomycin-induced idiopathic pulmonary fibrosis C57BL/6 mouse model assessed as reduction in c-Jun phosphorylation in lungs at 3 to 10 mg/kg, ip bid for 3 weeks by immunohistochemical staining analysis. Type of series: functional, organism-based. The settings on record: dose 3-10 mg/kg.
Series [21] is described as follows: Volume of distribution in Sprague-Dawley rat at 5 mg/kg, iv by HPLC-UV analysis. Format: ADME, organism-based. The conditions noted are these: in vivo.
Series [22] can be described thus: Half-life in Sprague-Dawley rat at 10 mg/kg, ip by HPLC-UV analysis. Format: ADME, organism-based. The conditions noted are these: in vivo.
The target in series [23] is Dual specificity mitogen-activated protein kinase kinase 1 (Homo sapiens) (UniProt Q02750). Kind of series: Inhibition of MAP2K1 (unknown origin) at 0.1 uM preincubated for 10 mins followed by substrate and ATP addition and measured after 60 mins by ADP-Glo reagent based luminescence analysis. The conditions noted are these: time 70.0 min.
Sequence of Dual specificity mitogen-activated protein kinase kinase 1 (Homo sapiens) (Q02750 whole entry): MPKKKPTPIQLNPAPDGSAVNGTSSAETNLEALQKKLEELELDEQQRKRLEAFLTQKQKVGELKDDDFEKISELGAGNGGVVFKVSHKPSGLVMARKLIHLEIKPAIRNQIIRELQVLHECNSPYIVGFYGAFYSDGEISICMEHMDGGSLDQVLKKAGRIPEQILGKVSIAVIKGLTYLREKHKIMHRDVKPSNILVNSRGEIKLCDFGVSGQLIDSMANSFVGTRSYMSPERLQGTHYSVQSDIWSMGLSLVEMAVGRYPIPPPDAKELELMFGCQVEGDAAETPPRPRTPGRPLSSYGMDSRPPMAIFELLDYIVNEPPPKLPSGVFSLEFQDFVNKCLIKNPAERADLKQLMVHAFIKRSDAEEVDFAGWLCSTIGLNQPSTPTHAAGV

From ChEMBL document CHEMBL6153021, “Structure Optimization of c-Jun N-terminal Kinase 1 Inhibitors for Treating Idiopathic Pulmonary Fibrosis” (J Med Chem, 2024) come the findings set out here.

Active and inactive are the calls of the source. No cut-off for these calls is given here.

T3 sequence (P45983 whole entry): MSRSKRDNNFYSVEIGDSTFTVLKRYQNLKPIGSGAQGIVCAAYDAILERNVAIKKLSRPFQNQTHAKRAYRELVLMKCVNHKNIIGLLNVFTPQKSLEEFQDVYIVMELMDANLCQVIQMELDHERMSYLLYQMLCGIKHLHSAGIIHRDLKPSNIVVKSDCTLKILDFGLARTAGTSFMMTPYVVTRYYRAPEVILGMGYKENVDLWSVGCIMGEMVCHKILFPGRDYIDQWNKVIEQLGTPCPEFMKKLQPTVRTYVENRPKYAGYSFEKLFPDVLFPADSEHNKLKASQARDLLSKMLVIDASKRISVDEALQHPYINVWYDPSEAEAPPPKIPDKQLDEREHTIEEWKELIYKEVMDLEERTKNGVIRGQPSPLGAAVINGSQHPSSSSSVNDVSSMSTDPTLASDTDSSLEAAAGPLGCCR
Sequence of Mitogen-activated protein kinase 7 (Homo sapiens) (Q13164 2-816 limits assumed): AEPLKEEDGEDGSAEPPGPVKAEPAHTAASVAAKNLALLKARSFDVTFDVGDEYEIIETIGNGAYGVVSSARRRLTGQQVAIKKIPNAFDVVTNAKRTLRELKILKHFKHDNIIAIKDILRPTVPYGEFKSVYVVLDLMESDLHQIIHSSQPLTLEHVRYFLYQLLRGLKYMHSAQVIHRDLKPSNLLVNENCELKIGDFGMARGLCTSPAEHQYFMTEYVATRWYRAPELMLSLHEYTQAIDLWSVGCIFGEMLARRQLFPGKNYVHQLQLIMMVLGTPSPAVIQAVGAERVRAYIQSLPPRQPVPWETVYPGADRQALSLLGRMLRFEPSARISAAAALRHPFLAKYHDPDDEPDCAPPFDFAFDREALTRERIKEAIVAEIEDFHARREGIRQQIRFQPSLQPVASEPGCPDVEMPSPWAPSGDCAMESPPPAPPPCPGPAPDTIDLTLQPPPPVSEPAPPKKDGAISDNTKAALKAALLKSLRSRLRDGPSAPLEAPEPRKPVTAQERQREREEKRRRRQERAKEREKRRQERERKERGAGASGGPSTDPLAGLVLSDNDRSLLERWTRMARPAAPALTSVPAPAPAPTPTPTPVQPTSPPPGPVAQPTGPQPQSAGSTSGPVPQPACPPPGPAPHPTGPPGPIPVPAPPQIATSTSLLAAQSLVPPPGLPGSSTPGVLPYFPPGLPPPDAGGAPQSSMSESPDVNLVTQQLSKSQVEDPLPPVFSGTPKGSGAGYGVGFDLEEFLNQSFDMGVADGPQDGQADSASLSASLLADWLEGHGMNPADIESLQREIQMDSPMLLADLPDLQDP
Sequence of Dual specificity mitogen-activated protein kinase kinase 2 (Homo sapiens) (P36507 whole entry): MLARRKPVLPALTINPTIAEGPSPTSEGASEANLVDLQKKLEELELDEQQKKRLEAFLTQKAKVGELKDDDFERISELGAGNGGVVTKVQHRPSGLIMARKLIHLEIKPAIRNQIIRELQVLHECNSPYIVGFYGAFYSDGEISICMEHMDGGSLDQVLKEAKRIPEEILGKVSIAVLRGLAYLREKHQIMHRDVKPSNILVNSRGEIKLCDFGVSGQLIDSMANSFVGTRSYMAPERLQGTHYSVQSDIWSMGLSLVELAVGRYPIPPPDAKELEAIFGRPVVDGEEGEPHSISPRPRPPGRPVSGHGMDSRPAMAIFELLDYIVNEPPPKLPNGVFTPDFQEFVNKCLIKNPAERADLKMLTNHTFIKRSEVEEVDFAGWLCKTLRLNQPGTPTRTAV

By inhibition is commonly meant the change of the read-out against control, counted positive when it falls. For orientation: AUC(0-inf) means total exposure, with the tail of the curve extrapolated. In general, MRT inf refers to the average time that molecules of a dose stay in the body. A word on the Tmax: it is the time at which the peak concentration occurs. `COc1ccc(Nc2ncc(Br)c(Nc3ccc(OCCN(C)C)cc3C(N)=O)n2)cc1`: the outcome in series [1] and in series [5] was Active. Besides, the inhibition entry in series [2], in series [10], in series [17] and in series [20] was “Active” in each case. Also, the inhibition in series [3] was 21.5%; in series [8], 23.6%; in [9], 91.5%; in series [13] it was 34.6%; in [14], 92.2%; in series [16] it was 67.8%. Besides, the inhibition entry is “Dose-dependent-effect” in series [18] and 90.9% in series [23]. Also, the Ratio IC50 in [4] worked out at 3.3; in series [12], 7. The same compound yielded an area under the curve AUC(0-inf) in [6] of 6430 ng·h/mL. In addition, the figures for the mean residence time (MRT inf) in series [7] and in series [11] were 12.6 h and 16.5 h, respectively. Moreover, the results for the Vd in series [15] and in series [21] were 29.3 L/kg and 0.93 L/kg, respectively. In [19], the Tmax was 8.4 min. In addition, in series [22], the t1/2 was 5.47 h.
